Data on 18 compounds can be found in patent publication US10653688B2, “6-(6-membered heteroaryl and aryl)isoquinolin-3-yl carboxamides and preparation and use thereof” (Samumed, LLC, priority 2017, dated 2020).

Like-named read-outs stand apart in the source and are kept apart here. Where only a bound is given, the exact number is not on record here.

For assay [1], the target named is recombinant GSK3β kinase (Homo sapiens (Human), UniProt P49841). As to the kind of experiment: GSK3β kinase assay (Ser/Thr 09 peptide Z-lyte, FRET).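 Also: FRET read-out as coumarin over fluorescein emission ratio, compounds incubated one hour at room temperature, IC50 from dose-response curve fit.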 The assay is classed as biochemical.
Sequence of recombinant GSK3β kinase (P49841 whole entry): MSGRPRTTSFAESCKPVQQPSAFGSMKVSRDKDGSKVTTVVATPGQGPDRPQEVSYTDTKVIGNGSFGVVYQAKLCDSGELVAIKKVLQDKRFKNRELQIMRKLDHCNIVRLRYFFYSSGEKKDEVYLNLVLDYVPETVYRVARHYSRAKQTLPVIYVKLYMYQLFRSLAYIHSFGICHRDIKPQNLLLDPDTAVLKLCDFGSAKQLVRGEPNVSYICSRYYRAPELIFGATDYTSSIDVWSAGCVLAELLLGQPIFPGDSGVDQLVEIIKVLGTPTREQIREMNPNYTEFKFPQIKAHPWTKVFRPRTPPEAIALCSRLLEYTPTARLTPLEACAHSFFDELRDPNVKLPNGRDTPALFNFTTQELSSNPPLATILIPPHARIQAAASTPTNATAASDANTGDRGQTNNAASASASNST
Assay [2] concerns LL29 cells (primary human fibroblasts derived from IPF patients), α-smooth muscle actin. In words: Inhibition of fibrotic process: TGF-β1-treated primary human fibroblasts, αSMA staining.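 As to all read-outs here: controls were TGF-β1-stimulated wells with DMSO vehicle as the positive reference and cells given DMSO alone as the negative reference.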 The note with it: Homo sapiens, Fibroblast; for EC50: 96 h, TGF-β1 20 ng/mL, 4 days, % cells positive for αSMA; for inhibition at 10 µM: read-out: percent inhibition at 10 μM (given for EC50 >10 μM), TGF-β1, αSMA, 10 μM. The class given is cell-based.

Assay [3] concerns the target recombinant DYRK1A kinase (Homo sapiens (Human), UniProt Q13627). As to the kind of experiment: DYRK1A kinase assay (Ser/Thr 18 peptide Z-lyte, FRET).
For assay [4], the system named is IL-6 in human peripheral blood mononuclear cells (huPBMCs). As to the kind of experiment: IL-6 inhibition in LPS-stimulated human peripheral blood mononuclear cells (HTRF). The following applies: Homo sapiens, PBMC; for EC50: LPS 50 ng/mL, 22 hours, IL-6 HTRF; for inhibition at 10 µM: read-out: percent inhibition at 10 μM (given for EC50 >10 μM), LPS, IL-6, 10 μM. The assay is classed as cell-based. The procedure, abridged:
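Fresh normal human PBMCs at 1×10e6 cells/mL in RPMI with 1% FBS received compound, then 50 ng/mL E. coli 0111:B4 LPS 2 h later, and were incubated a further 22 h at 37° C. IL-6 read by HTRF (665/620 nm ratio), normalized to DMSO; EC50 from 4-parameter fit.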

[5] abbreviates: GSK3β kinase, head says EC50, method says IC50, ATP 46 μM.
[6] abbreviates: DYRK1A kinase, head says EC50, method says IC50, ATP 30 μM.

For `O=C(Nc1cc2cc(-c3cnccn3)ccc2cn1)[C@H]1C[C@H](N2CCOCC2)C1` [Compound 69, trans-3-Morpholino-N-(6-(pyrazin-2-yl)isoquinolin-3-yl)cyclobutane-1-carboxamide], the EC50 in assay [1] is 283 nM; in assay [2] it was 6730 nM; in assay [3], 20 nM; in assay [4], over 10000 nM. The inhibition at 10 µM in assay [4] was found to be 4.4%.

With `CN1CCN(CC(=O)Nc2cc3cc(-c4ccc(F)nc4)ccc3cn2)CC1` [Compound 21, N-(6-(6-Fluoropyridin-3-yl)isoquinolin-3-yl)-2-(4-methylpiperazin-1-yl) acetamide], the EC50 in assay [1] (setting [5]) is 3200 nM; in assay [2] it was 3400 nM; in assay [3] (setting [6]), 42 nM; in assay [4], over 10000 nM. Moreover, the inhibition at 10 µM in assay [4] stood at 6.3%.

For the compound `O=C(Nc1cc2cc(-c3cnccn3)ccc2cn1)C1CCN(C2COC2)CC1` [Compound 78, 1-(Oxetan-3-yl)-N-(6-(pyrazin-2-yl)isoquinolin-3-yl)piperidine-4-carboxamide], the 50% effective concentration (EC50) in assay [1] (setting [5]) is 804 nM; in assay [2], 2310 nM; in assay [3] (setting [6]), 13 nM; in assay [4] it was over 10000 nM. For the same compound, in assay [4], the inhibition at 10 µM came out at 8.9%.

On to `[2H]c1nc([2H])c(-c2ccc3cnc(NC(=O)CN4CCN(C)CC4)cc3c2)c([2H])c1[2H]` [Compound 61, 2-(4-Methylpiperazin-1-yl)-N-(6-(pyridin-3-yl-d4)isoquinolin-3-yl)acetamide], for which the concentration giving a half-maximal response (EC50) in assay [1] was 1030 nM; in assay [2], over 10000 nM; in assay [3] it was 11 nM; in assay [4], over 10000 nM. For the same compound, the inhibition at 10 µM in assay [2] was 4.6%; in assay [4] it was 26.4%.

Consider `CN1CCC(C(=O)Nc2cc3cc(-c4cncc(N5CCCC5)c4)ccc3cn2)CC1` [Compound 50, 1-Methyl-N-(6-(5-(pyrrolidin-1-yl)pyridin-3-yl)isoquinolin-3-yl)piperidine-4-carboxamide], for which the concentration for a half-maximal effect (EC50) in assay [1] (setting [5]) is 725 nM; in assay [2], over 10000 nM; in assay [3] (setting [6]), 25 nM; in assay [4] it was 8950 nM. Further, the inhibition at 10 µM in assay [2] stood at 31.1%.

`O=C(CN1CCOCC1)Nc1cc2cc(-c3cccnc3)ccc2cn1` [Compound 10, 2-Morpholino-N-(6-(pyridin-3-yl)isoquinolin-3-yl)acetamide]: the 50% effective concentration (EC50) in assay [1] (setting [5]) is 525 nM; in assay [2], over 10000 nM; in assay [3] (setting [6]), 8 nM; in assay [4] it was over 10000 nM. The inhibition at 10 µM in assay [2] was found to be 6.2%; in assay [4], 3.7%.

With `CC(C)Nc1cncc(-c2ccc3cnc(NC(=O)C4CCN(C)CC4)cc3c2)n1` [Compound 88, N-(6-(6-(Isopropylamino)pyrazin-2-yl)isoquinolin-3-yl)-1-methylpiperidine-4-carboxamide], the EC50 in assay [1] (setting [5]) is 26 nM; in assay [2] it was over 10000 nM; in assay [3] (setting [6]) it was 1 nM; in assay [4] it was 400 nM. The inhibition at 10 µM in assay [2] worked out at 31.9%.

On to `CN1CCN(C[C@H]2CC[C@H](C(=O)Nc3cc4cc(-c5cnccn5)ccc4cn3)CC2)CC1` [Compound 73, trans-4-((4-Methylpiperazin-1-yl)methyl)-N-(6-(pyrazin-2-yl)isoquinolin-3-yl)cyclohexane-1-carboxamide], for which the EC50 in assay [1] was 828 nM; in assay [2], over 10000 nM; in assay [3] it was 4 nM; in assay [4], 320 nM. Further, the inhibition at 10 µM in assay [2] was determined as 43.1%.

As to `O=C(Nc1cc2cc(-c3cnccn3)ccc2cn1)[C@H]1CC[C@H](CN2CC(F)C2)CC1` [Compound 72, trans-4-((3-Fluoroazetidin-1-yl)methyl)-N-(6-(pyrazin-2-yl)isoquinolin-3-yl)cyclohexane-1-carboxamide], the EC50 in assay [1] was 1220 nM; in assay [2], 1830 nM; in assay [3], 7 nM; in assay [4], over 10000 nM. The inhibition at 10 µM in assay [4] was determined as 10%.

As for `O=C(Nc1cc2cc(-c3cnccn3)ccc2cn1)[C@H]1CC[C@H](N2CCOCC2)CC1` [Compound 71, trans-4-Morpholino-N-(6-(pyrazin-2-yl)isoquinolin-3-yl)cyclohexane-1-carboxamide], the EC50 was 1020 nM in assay [1], over 10000 nM in assay [2], 11 nM in assay [3] and over 10000 nM in assay [4]. Also, the inhibition at 10 µM was determined as 43.4% in assay [2] and 11% in assay [4].

`CN1CCCN(CC(=O)Nc2cc3cc(-c4cccnc4)ccc3cn2)CC1` [Compound 12, 2-(4-Methyl-1,4-diazepan-1-yl)-N-(6-(pyridin-3-yl)isoquinolin-3-yl) acetamide]: the EC50 in assay [1] (setting [5]) was determined as 722 nM; in assay [2], 1190 nM; in assay [3] (setting [6]), 17 nM; in assay [4], 9860 nM.

`O=C(CN1CCCC1)Nc1cc2cc(-c3cccnc3)ccc2cn1` [Compound 7, N-(6-(Pyridin-3-yl)isoquinolin-3-yl)-2-(pyrrolidin-1-yl)acetamide]: the EC50 in assay [1] (setting [5]) was 247 nM; in assay [2], 4350 nM; in assay [3] (setting [6]), 7 nM; in assay [4] it was 9260 nM.

`O=C(CN1CCOCC1)Nc1cc2cc(-c3ccnnc3)ccc2cn1` [Compound 67, 2-morpholino-N-(6-(pyridazin-4-yl)isoquinolin-3-yl)acetamide]: the EC50 is 68 nM in assay [1], 1030 nM in assay [2], 29 nM in assay [3] and over 10000 nM in assay [4]. Also, the inhibition at 10 µM in assay [4] came out at 6.3%.

Regarding `[2H]c1nc([2H])c(-c2ccc3cnc(NC(=O)CN4CCOCC4)cc3c2)c([2H])c1[2H]` [Compound 62, 2-Morpholino-N-(6-(pyridin-3-yl-d4)isoquinolin-3-yl)acetamide], the EC50 in assay [1] is 455 nM; in assay [2] it was over 10000 nM; in assay [3], 9 nM; in assay [4], over 10000 nM. The inhibition at 10 µM in assay [2] was determined as 13.2%; in assay [4], 8%.

As for `CN1CCN(C[C@H]2CC[C@H](C(=O)Nc3cc4cc(-c5cncc(F)c5)ccc4cn3)CC2)CC1` [Compound 17, trans-N-(6-(5-Fluoropyridin-3-yl)isoquinolin-3-yl)-4-((4-methylpiperazin-1-yl)methyl)cyclohexane-1-carboxamide], the concentration giving a half-maximal response (EC50) was found to be 974 nM in assay [1] (setting [5]), 471 nM in assay [2], 3 nM in assay [3] (setting [6]) and 9350 nM in assay [4].

Take `CN1CCN(CC(=O)Nc2cc3cc(-c4cccnc4)ccc3cn2)CC1` [Compound 11, 2-(4-Methylpiperazin-1-yl)-N-(6-(pyridin-3-yl)isoquinolin-3-yl)acetamide]: the EC50 is 1120 nM in assay [1] (setting [5]), 3580 nM in assay [2], 20 nM in assay [3] (setting [6]) and over 10000 nM in assay [4]. For the same compound, in assay [4], the inhibition at 10 µM was found to be 8.5%.

On to `O=C(Nc1cc2cc(-c3cccnc3)ccc2cn1)C12CCN(CC1)CC2` [Compound 9, N-(6-(Pyridin-3-yl)isoquinolin-3-yl)quinuclidine-4-carboxamide], for which the EC50 in assay [2] is 2270 nM; in assay [3] (setting [6]), 26 nM; in assay [4], over 10000 nM. Besides, the inhibition at 10 µM in assay [4] turned out to be 3.9%.

Turning to `O=C(Nc1cc2cc(-c3cnccn3)ccc2cn1)C1CCN(CCF)CC1` [Compound 77, 1-(2-Fluoroethyl)-N-(6-(pyrazin-2-yl)isoquinolin-3-yl)piperidine-4-carboxamide], the EC50 was 1070 nM in assay [1] (setting [5]), 4760 nM in assay [2], 11 nM in assay [3] (setting [6]) and over 10000 nM in assay [4]. Further, the inhibition at 10 µM in assay [4] is 9.6%.
